Test results from patent publication US20130150346A1, “Use of FAAH Inhibitors for Treating Parkinson's Disease and Restless Legs Syndrome” (Ironwood Pharmaceutical, Inc., priority 2010, published 2013).

Tested on: MPTP-lesioned marmosets
Assay: Rating of parkinsonian disability, dyskinesia and psychosis in MPTP-lesioned marmosets
Assay type: in vivo, common marmosets (Callithrix jacchus)
Description: Six common marmosets (Callithrix jacchus; female; weight, 350-500 g (Harlan, Madison, Wis., USA)) were kept under conditions of controlled temperature (25±2° C.) and a 12-hour light/dark cycle (lights on 6:30 a.m.). Animals were group housed and had access to food, fresh-fruit supplements and water ad libitum and their home cage environment was enriched with primate toys, perches and auditory stimuli. Prior to start of studies, animals were acclimatized to handling, blood collection and administration of treatments (oral syringe feeding and subcutaneous injection) as well as transfer to observation cages for assessment of behavior. A parkinsonian syndrome was induced by once-daily subcutaneous administration of MPTP hydrochloride (Sigma, Canada; 2 mg/kg base concentration in 0.9% saline) for 5 consecutive days. Following this, animals were allowed to recover for 12 weeks to allow parkinsonian symptoms to develop and stabilize. […] Treatment-related complications including dyskinesia and psychosis-like behaviors were evoked by twice-daily treatment with L-DOPA p.o. (as Prolopa®, Roche Canada, Ontario, equivalent to 15 mg/kg L-DOPA and 3.5 mg/kg benserazide) for a minimum of 30 days. […] Disord. 21:839-846; Visanji et al. (2008) Mov. Disord. 23:1922-1925; Visanji et al (2009) Neurobiol Dis. 35: 184-192]. After this time, the animals were used in several studies to evaluate potential anti-parkinsonian and anti-dyskinetic agents. A minimum period of two weeks was allowed between completing any prior study and commencing this study, a period in excess of ten half-lives since administration of any previously employed experimental drug. Throughout the course of the study, on days not requiring plasma sampling or behavioral observations, animals were treated once daily with oral L-DOPA therapy, given at 10:00 a.m. to maintain stable levels of complications. Marmosets treated with MPTP as described in this example are referred to as MPTP-lesioned marmosets.
To assess the effect of treatment on plasma FAAH substrate level, total activity, high activity time and count, data were analyzed using a parametric repeated-measures (RM) 1-way analysis of variance (ANOVA) followed by a Student Newman-Keuls Multiple Comparison post hoc test. To assess the effect of treatment on plasma L-DOPA level a paired, two-tailed t-test was used. All FAAH (AEA, OEA, PEA) subbstrate and L-DOPA plasma level data and activity data are presented as the group mean and SEM For measures of parkinsonian disability, dyskinesia and psychosis, data were analyzed via Friedman's test with Dunn's Multiple Comparison post hoc test. […] In all cases, p<0.05 was taken to represent a significant difference.
MPTP hydrochloride (Sigma, Canada) was dissolved in 0.9% NaCl sterile solution to a concentration of 0.2 mg/ml (freebase) and administered at 1 ml/kg. Maintenance L-DOPA, administered as Prolopa® capsules (Roche, Mississauga, ON, Canada) containing 50 mg L-DOPA and 12.5 mg benserazide (freebase) was dissolved in Gatorade sports beverage (The Gatorade Company, Chicago, Ill.) prior to oral administration by syringe at a volume of 10 ml/kg. On days of behavioral assessment, L-DOPA (20 mg/kg, freebase) was prepared from the methyl ester form (Sigma, Canada) in combination with benserazide hydrochloride (5 mg/kg, freebase, Sigma, Canada) dissolved in 0.9% sterile saline containing 0.1% ascorbate (Sigma, Canada) and 0.05% absolute ethanol. URB597 (Cayman Chemical, Ann Arbor, Mich.) was formulated in a vehicle containing 50% corn oil (Professional Compounding Centers of America (PCCA), Houston, Tex.) and 50% nutritional drink Ensure™ (Abbott Nutrition, Chicago, Ill.) to make the suspension palatable for marmoset oral dosing. Requisite amounts of URB597 were weighed into sterile 50 ml polypropylene tubes (for the 3, 10, 30 and 60 mg/kg doses, 12, 40, 120 and 240 mg were weighed respectively). Then, 10 ml Corn oil was added and mixed until homogenous.

[1] = URB597 10 mg/kg p.o. + L-DOPA 20 mg/kg s.c., 2-4 h, p>0.05 cf. L-DOPA alone

## NC(=O)c1cccc(-c2cccc(OC(=O)NC3CCCCC3)c2)c1 [URB597]
URB597 10 mg/kg p.o. + L-DOPA 20 mg/kg s.c., 2-4 h
  level of psychosis: mild to moderate
[1]
  effect of URB597 on L-DOPA-induced dyskinesia: did not modify
  effect of URB597 on L-DOPA-induced psychosis: did not modify
  effect of URB597 on anti-parkinsonian actions of L-DOPA: did not modify
URB597 10 mg/kg p.o. + L-DOPA 20 mg/kg s.c., summed 2-4 h, IQR 13-29, n=6
  dyskinesia score (median): 18
URB597 10 mg/kg p.o. + L-DOPA 20 mg/kg s.c., summed 2-4 h, maximum 432, IQR 65-114, n=6
  parkinsonian disability score (median): 78
URB597 10 mg/kg p.o. given alone (vehicle s.c.), p>0.05
  effect on parkinsonian disability, dyskinesia or psychosis cf. vehicle: did not modify
